Key:
[1] = tested on: Myc transcriptional activation in HT-1080 cells; assay: Nucleolin promoter (pNucL14) luciferase reporter, HT-1080; assay type: cell-based, human; conditions: HT-1080, pNucL14 ± FLAG-c-Myc
Text: The generation of TCF-Luciferase and TA-Renilla reporter plasmids as well as IC50 determination and calculation was reported previously. Human AXIN1 and WNT3A cDNAs were purchased from Origene as “transfection ready” plasmids. Dominant negative TCF4 cDNA was purchased from Upstate. Luciferase reporter of the nucleolin promoter (pNucL14) and FLAG-c-Myc expressing vector were from B. Amati. Luciferase reporter of the Hes5 promoter and Notch1-IC expressing vector were from I. Screpanti. Lentiviral vectors for inducible dominant negative TCF4 (rLV-EF1-tTS, rLV-EF1-rtTA and rLV-TRE-CMV-HA-TCF4DN) were purchased from Vectalys.
Transfections were carried out using Lipofectamine 2000 (Invitrogen) according to the manufacturer’s instructions. Lentiviral expression of TCF-Luc, TA-Renilla, and the inducible dominant negative TCF4, were carried out following Vectalys instructions. For reporter assays, luciferase activities were performed as described previously.

[2] = tested on: U2OS (osteosarcoma) cells; assay: Soft agar assay (anchorage-independent growth), U2OS; assay type: cell-based, human
Description: Soft agar assay and analysis was carried out as previously described. For scratch assay, confluent monolayer of U2OS and HT-1080 cells were subjected to scratch using a sterile pipette tip. Wounded monolayers were washed to remove debris and incubated with SEN461 at different concentrations for 20 hours. After the incubation period, images were taken under an Axiovert 200M (Zeiss) microscope equipped with a CCD camera, and the gap width was measured using MetaMorph 6.3 software (Universal Imaging Corp.) to calculate the area covered by cells (pixels unit). The tube formation assay was performed using growth factor-reduced Matrigel from BD (BD Biosciences; San Jose, CA, USA). Matrigel was thawed overnight at 4°C and was diluted (1∶1) with phenol red-free DMEM without serum. 100 µl of the diluted matrigel was used to coat the wells of a 96 well plate and was allowed to polymerize for 2 hours at 37°C. After equilibrating the gel with the complete growth medium, 15×10^3 cells were seeded in each well and incubated for 20 hours. The tube formation was monitored under a phase contrast microscope (Axiovert 200, Zeiss) and imaged using MetaMorph system (Universal Imaging Corp).

[3] = Body weight and intestinal histology of treated mice; assay type: in vivo, female Crl:CD-1 nude mice; conditions: 30 mg/kg twice a day for seven days
Description: Female athymic nude mice (6 weeks old, Crl:CD-1 nude mice) were obtained from Charles River Italia (Calco, Italy). HT-1080 cells (6×10^∧6 cells) were resuspended in 200 µl of PBS 1X and injected subcutaneously in the right flank of the mice. Body weight and tumor measurements (using a digital caliper) were performed twice a week. Randomization was performed on day 12 after cell injection by comparing tumor mass and treatments started on day 13 when tumors reached a median size of 246 mm^3 (range = 230–268 mm^3). SEN461 was formulated in 0.5% w/v Methocel in MilliQ water and administered PO by oral gavage twice a day at 30 mg/kg for seven consecutive days in a total of 15 animals (n = 5 for each time point). Control animals (n = 5) were administered with the vehicle for the same time period. On treatment day 19, the mice were euthanized under inhalant anesthesia with isoflurane and tumor and blood samples were collected at three different time points (1–4–8 h, n = 5 animals for each time point) after last treatment and subjected to gene expression analysis and compound quantification. All mice were maintained in a conventional-specific-pathogen-free facility according to the NIH guidelines using an approved Animal Care and Use Committee protocol. […]

COCC(=O)N1CCN(C(=O)C2CCC(Cn3c(=O)c4cc(OC)ccc4n(C)c3=O)CC2)CC1 (stereo not shown) [SEN461]
Myc mediated activation / basal activity of nucleolin reporter [1]: did not affect
IC50 [2]: 300 nM
body weight [3]: maintained their body weight with no significant changes
histology of gastrointestinal tract [3]: absence of gross histological changes
